Experiments:
Plasmodium falciparum [1] = assay: Antimicrobial activity against Plasmodium falciparum at ring stage; assay type: functional, organism-based
Plasmodium vivax [2] = assay: Antimicrobial activity against Plasmodium vivax at ring stage
Plasmodium vivax [3] = assay: Antimicrobial activity against Plasmodium vivax at trophozoite stage; assay type: functional, organism-based
Plasmodium falciparum [4] = assay: Antimicrobial activity against Plasmodium falciparum harboring amplified Pfmdr1 gene
Plasmodium vivax [5] = assay: Antimicrobial activity against Plasmodium vivax harboring single copy of Pvmdr1 gene; assay type: functional, organism-based
Plasmodium falciparum [6] = assay: Antimicrobial activity against Plasmodium falciparum harboring single copy of Pfmdr1 gene
Plasmodium vivax [7] = assay: Antimicrobial activity against Plasmodium vivax harboring amplified Pvmdr1 gene; assay type: functional, organism-based

Q: Which IC50 (Plasmodium falciparum [1]) does the source give for `CC(C)(C)NC(=O)[C@@H]1C[C@@H]2CCCC[C@@H]2CN1C[C@@H](O)[C@H](Cc1ccccc1)NC(=O)[C@H](CC(N)=O)NC(=O)c1ccc2ccccc2n1` here?
A: The IC50 was 8.3 µM.

Q: With `CCN(CC)CCCC(C)Nc1ccnc2cc(Cl)ccc12` (centres undefined) [CHLOROQUINE] as the compound, how does the IC50 (Plasmodium vivax [2]) read?
A: The IC50 was 38 nM.

Q: What about the IC50 (Plasmodium vivax [3]) of the same compound?
A: The IC50 was 442 nM.

Q: Which IC50 (Plasmodium falciparum [1]) does the source give for `OC(c1cc(C(F)(F)F)nc2c(C(F)(F)F)cccc12)C1CCCCN1` (centres undefined) [MEFLOQUINE] here?
A: The IC50 was 0.137 µM.

Q: What about the IC50 (Plasmodium falciparum [4]) of the same compound?
A: Its IC50 is 182 nM.

Q: What about the IC50 (Plasmodium vivax [5]) of the same compound?
A: The IC50 was 43 nM.

Q: And the IC50 (Plasmodium falciparum [6])?
A: The IC50 was 77 nM.

Q: What about the IC50 (Plasmodium vivax [7]) of the same compound?
A: The IC50 was 176 nM.

Q: For `CC(C)c1nc(CN(C)C(=O)N[C@H](C(=O)N[C@@H](Cc2ccccc2)C[C@H](O)[C@H](Cc2ccccc2)NC(=O)OCc2cncs2)C(C)C)cs1` [RITONAVIR], which IC50 (Plasmodium falciparum [1]) is on record?
A: Its IC50 is 9.66 µM.

Reference: ChEMBL document CHEMBL1275446, “Stronger activity of human immunodeficiency virus type 1 protease inhibitors against clinical isolates of Plasmodium vivax than against those of P. falciparum” (Antimicrob Agents Chemother, 2008)
